Data taken from patent publication US20110045101A1, “FUNGICIDAL SUBSTITUTED AZOLES” (E.I. Du Pont De Nemours and Company, priority 2009, published 2011).
Marks after values point to notes of the source that are not given here.

Experiments:
Assay type in all cases: in vivo
Botrytis cinerea = assay: Test C: tomato Botrytis on tomato seedlings, sprayed the day before inoculation, visual disease rating; details: 100 = 100% disease control; for pest or weed control at 200 ppm: Botrytis cinerea, 120 h
Source text: General protocol for preparing test suspensions for Tests A-J: The test compounds were first dissolved in acetone in an amount equal to 3% of the final volume and then suspended at the desired concentration (in ppm) in acetone and purified water (50/50 mix) containing 250 ppm of the surfactant Trem® 014 (polyhydric alcohol esters). The resulting test suspensions were then used in tests A-J. Spraying a 200 ppm test suspension to the point of run-off on the test plants was the equivalent of a rate of 500 g/ha. […] The test suspension was sprayed to the point of run-off on tomato seedlings. […] A dash (-) indicates no test results. All results are for 200 ppm except where followed by “*”, which indicates 40 ppm.

Alternaria solani = assay: Test D: tomato early blight, sprayed the day before inoculation, visual disease rating; details: 100 = 100% disease control; for pest or weed control at 200 ppm: Alternaria solani, 168 h
Source text: (§1) General protocol for preparing test suspensions for Tests A-J: The test compounds were first dissolved in acetone in an amount equal to 3% of the final volume and then suspended at the desired concentration (in ppm) in acetone and purified water (50/50 mix) containing 250 ppm of the surfactant Trem® 014 (polyhydric alcohol esters). The resulting test suspensions were then used in tests A-J. Spraying a 200 ppm test suspension to the point of run-off on the test plants was the equivalent of a rate of 500 g/ha. […] The test suspension was sprayed to the point of run-off on wheat seedlings. […] A dash (-) indicates no test results. All results are for 200 ppm except where followed by “*”, which indicates 40 ppm.

Septoria nodorum = assay: Test F: wheat glume blotch on wheat seedlings, sprayed the day before inoculation, visual disease rating; details: 100 = 100% disease control; for pest or weed control at 200 ppm: Parastagonospora nodorum, 264 h
Source text: as §1

[1] = tested on: Puccinia recondita f. sp. tritici; assay: Test I: wheat leaf rust on wheat seedlings, sprayed the day before inoculation, visual disease rating; details: 100 = 100% disease control; for pest or weed control at 200 ppm: Puccinia recondita, 168 h
Source text: as §1

[2] = tested on: Erysiphe graminis f. sp. tritici; assay: Test J: wheat powdery mildew on wheat seedlings, sprayed the day before inoculation, visual disease rating; details: 100 = 100% disease control; for pest or weed control at 200 ppm: Blumeria graminis, 168 h
Source text: as §1

Septoria tritici = assay: Test G: wheat leaf blotch on wheat seedlings, sprayed the day before inoculation, visual disease rating; details: 100 = 100% disease control; for pest or weed control at 200 ppm: Zymoseptoria tritici, 504 h
Source text: General protocol for preparing test suspensions for Tests A-J: The test compounds were first dissolved in acetone in an amount equal to 3% of the final volume and then suspended at the desired concentration (in ppm) in acetone and purified water (50/50 mix) containing 250 ppm of the surfactant Trem® 014 (polyhydric alcohol esters). The resulting test suspensions were then used in tests A-J. Spraying a 200 ppm test suspension to the point of run-off on the test plants was the equivalent of a rate of 500 g/ha. […] The test suspension was sprayed to the point of run-off on wheat seedlings. The following day the seedlings were inoculated with a spore suspension of Septoria tritici (the causal agent of wheat leaf blotch) and incubated in saturated atmosphere at 24° C. for 48 h, and then moved to a growth chamber at 20° C. for 19 days, after which time visual disease ratings were made. […] A dash (-) indicates no test results. All results are for 200 ppm except where followed by “*”, which indicates 40 ppm.

[3] = 200 ppm, 0 = no control relative to controls

| SMILES | Test C disease control rating (Botrytis cinerea; [3]) | Test D disease control rating (Alternaria solani; [3]) | Test F disease control rating (Septoria nodorum; [3]) | Test I disease control rating [1, 3] | Test J disease control rating [2, 3] | Test G disease control rating (Septoria tritici; [3]) | Test C disease control rating (Botrytis cinerea; 200 ppm, 0 = no control) | Test D disease control rating (Alternaria solani; 200 ppm, 0 = no control) | Test F disease control rating (Septoria nodorum; 200 ppm, 0 = no control) | Test I disease control rating ([1]; 200 ppm, 0 = no control) | Test J disease control rating ([2]; 200 ppm, 0 = no control) | Test G disease control rating (Septoria tritici; 200 ppm, 0 = no control) | also measured |
| --- | --- | --- | --- | --- | --- | --- | --- | --- | --- | --- | --- | --- | --- |
| Cc1nn(C)c(-c2c(F)cc(F)cc2F)c1-c1ccc(Cl)c(F)c1 [compound 71] | 47% | 33% | 0% | 9% | 56% | 2% | – | – | – | – | – | – | – |
| Fc1ccc(-c2c(Cl)nnn2-c2ccc(Cl)cc2)c(F)c1 [Compound 24, 4-chloro-1-(4-chlorophenyl)-5-(2,4-difluorophenyl)-1H-1,2,3-triazole] | – | – | – | – | – | – | – | – | – | – | – | – | pest or weed control at 200 ppm (Botrytis cinerea; [3]): 90%; pest or weed control at 200 ppm (Alternaria solani; [3]): 0%; pest or weed control at 200 ppm (Septoria nodorum; [3]): 0%; pest or weed control at 200 ppm [1, 3]: 28%; pest or weed control at 200 ppm [2, 3]: 95%; pest or weed control at 200 ppm (Septoria tritici; [3]): 67% |
| COc1ccc(F)c(-c2c(Cl)nc(Br)n2-c2ccc(C)cc2)c1F [compound 281] | – | – | – | – | – | – | 100% | 100% | 97% | 100% | 100% | 96% | – |
| CN(C)c1ncn(Cc2ccc(Cl)cc2)c1-c1c(F)cccc1F [compound 99] | 0% | 0% | 0% | 91% | 0% | 25% | – | – | – | – | – | – | – |
| COc1ccc(F)c(-c2c(Cl)ncn2-c2ccc(Cl)cc2)c1F [compound 112] | 99% | 100% | 89% | 99% | 99% | 98% | – | – | – | – | – | – | – |
| Cc1ccc(-n2c(C)nc(Cl)c2-c2c(F)ccc(F)c2F)cc1 [compound 155] | – | – | – | – | – | – | 99% | 100% | 87% | 99% | 100% | 95% | – |
| Cc1ccc(F)c(-c2c(Cl)nc(C)n2-c2ccc(Cl)cc2)c1F [compound 107] | 96% | 100% | 100% | 100% | 100% | 96% | – | – | – | – | – | – | – |
| Cn1nc(Br)c(-c2c(F)cccc2F)c1-c1ccc(Cl)cc1 [Compound 125, 3-bromo-5-(4-chlorophenyl)-4-(2,6-difluorophenyl)-1-methyl-1H-pyrazole] | – | – | – | – | – | – | – | – | – | – | – | – | pest or weed control at 200 ppm (Botrytis cinerea; [3]): 98%; pest or weed control at 200 ppm (Alternaria solani; [3]): 100%; pest or weed control at 200 ppm (Septoria nodorum; [3]): 0%; pest or weed control at 200 ppm [1, 3]: 91%; pest or weed control at 200 ppm [2, 3]: 100%; pest or weed control at 200 ppm (Septoria tritici; [3]): 92% |
| Cc1nc(Cl)c(-c2c(F)cccc2F)n1-c1ccccc1F [compound 64] | 99% | 100% | 95% | 100% | 96% | 95% | – | – | – | – | – | – | – |
| COc1ccc(Cn2c(Cl)nc(Cl)c2-c2c(F)cccc2F)cc1Cl [compound 213] | – | – | – | – | – | – | 63% | 0% | 0% | 100% | 42% | 96% | – |
| Cc1nc(Cl)n(-c2ccc(Cl)c(F)c2)c1-c1ccccc1F [compound 260] | – | – | – | – | – | – | 100% | 95% | 0% | 94% | 99% | 92% | – |
| COc1cc(F)c(-c2c(C)ncn2-c2ccc(Cl)c(F)c2)c(F)c1 [compound 46] | – | – | – | – | – | – | – | – | – | – | – | – | Test C disease control rating (Botrytis cinerea; 40 ppm (marked *)): 86* %; Test D disease control rating (Alternaria solani; 40 ppm (marked *)): 97* %; Test F disease control rating (Septoria nodorum; 40 ppm (marked *)): 0* %; Test I disease control rating ([1]; 40 ppm (marked *)): 26* %; Test J disease control rating ([2]; 40 ppm (marked *)): 78* %; Test G disease control rating (Septoria tritici; 40 ppm (marked *)): 83* % |
| Fc1cccc(F)c1-c1c(Cl)nc(Br)n1Cc1ccc(Cl)cc1 [compound 103] | 79% | 92% | 90% | 100% | 99% | 98% | – | – | – | – | – | – | – |
| Cc1ccc(-n2c(Cl)nc(Cl)c2-c2c(F)ccc(F)c2Cl)cc1 [compound 198] | – | – | – | – | – | – | 98% | 99% | 0% | 100% | 95% | 90% | – |
| Cc1nc(Cl)c(Cc2c(F)cccc2F)n1-c1ccc(Cl)cc1 [compound 258] | – | – | – | – | – | – | 99% | 0% | 42% | 97% | 78% | 87% | – |
| COc1cc(F)c(-c2c(Cl)nc(C)n2-c2cccc(F)c2)c(F)c1 [Compound 280, 4-chloro-5-(2,6-difluoro-4-methoxyphenyl)-1-(3-fluorophenyl)-2-methyl-1H-imidazole] | – | – | – | – | – | – | – | – | – | – | – | – | pest or weed control at 200 ppm (Botrytis cinerea; 200 ppm, 0 = no control): 100%; pest or weed control at 200 ppm (Alternaria solani; 200 ppm, 0 = no control): 100%; pest or weed control at 200 ppm (Septoria nodorum; 200 ppm, 0 = no control): 100%; pest or weed control at 200 ppm ([1]; 200 ppm, 0 = no control): 100%; pest or weed control at 200 ppm ([2]; 200 ppm, 0 = no control): 100%; pest or weed control at 200 ppm (Septoria tritici; 200 ppm, 0 = no control): 95% |
| Fc1cc(-n2c(Cl)nc(Cl)c2-c2c(F)ccc(F)c2F)ccc1Cl [compound 135] | 99% | 100% | 0% | 100% | 100% | 93% | – | – | – | – | – | – | – |
| CCc1ccc(-n2c(Cl)nc(Cl)c2-c2c(F)ccc(OC)c2F)cc1 [compound 442] | 99% | 99% | 0% | 99% | 100% | 95% | – | – | – | – | – | – | – |
| Fc1ccc(-n2c(Br)nc(Cl)c2-c2c(F)cccc2Cl)cc1 [compound 185] | – | – | – | – | – | – | 99% | 100% | 78% | 100% | 99% | 94% | – |
| COc1cc(F)c(-c2c(Cl)nc(Br)n2-c2cccc(F)c2)c(F)c1 [Compound 256, 2-bromo-4-chloro-5-(2,6-difluoro-4-methoxyphenyl)-1-(3-fluorophenyl)-1H-imidazole] | – | – | – | – | – | – | – | – | – | – | – | – | pest or weed control at 200 ppm (Botrytis cinerea; 200 ppm, 0 = no control): 100%; pest or weed control at 200 ppm (Alternaria solani; 200 ppm, 0 = no control): 100%; pest or weed control at 200 ppm (Septoria nodorum; 200 ppm, 0 = no control): 100%; pest or weed control at 200 ppm ([1]; 200 ppm, 0 = no control): 100%; pest or weed control at 200 ppm ([2]; 200 ppm, 0 = no control): 99%; pest or weed control at 200 ppm (Septoria tritici; 200 ppm, 0 = no control): 97% |
| COc1cc(F)c(-c2c(Cl)nc(Cl)n2-c2ccc(F)cc2)c(F)c1 [compound 142] | 99% | 100% | 97% | 100% | 100% | 94% | – | – | – | – | – | – | – |
| Fc1ccc(-n2c(Cl)nc(Cl)c2-c2c(F)ccc(F)c2Cl)cc1 [compound 196] | – | – | – | – | – | – | 99% | 100% | 0% | 100% | 97% | 92% | – |
